ChEMBL document CHEMBL5465560, “Selectivity Literature for EUbOPEN Chemogenomic Library” (2024)
pIC50: −log10 of the molar value.

Experiments:
[1] = target: Vascular endothelial growth factor receptor 2 (Homo sapiens, UniProt P35968); assay: Selectivity interaction (Kinase panel (literature)) EUB0001199aCl KDR; settings: at 1 µM
[2] = target: Dual specificity tyrosine-phosphorylation-regulated kinase 1B (Homo sapiens, UniProt Q9Y463); assay: Selectivity interaction (KinomeScan (DiscoverX)) EUB0000229b DYRK1B; settings: at 10 µM
[3] = target: Serine/threonine-protein kinase A-Raf (Homo sapiens) (UniProt P10398); assay: Selectivity interaction (Kinase panel (KiNativ target engagement assay in Jurkat cells)) EUB0001635a ARAF; assay type: cell-based; settings: Selectivity number of off-targets 0.0, Selectivity number of targets 233.0, Source Knowledge https://www.sciencedirect.com/science/article/pii/S2451945619300674?via%3Dihub, at 1 µM
[4] = target: Dual specificity protein kinase CLK3 (Homo sapiens, UniProt P49761); assay: Selectivity interaction (ActivX KiNativ screen (kinase selectivity in THP-1 cell lysates)) EUB0000639a CLK3; assay type: subcellular; settings: lysate
[5] = target: Mitogen-activated protein kinase kinase kinase 11 (Homo sapiens) (UniProt Q16584); assay: Selectivity interaction (ActivX KiNativ screen (kinase selectivity in THP-1 cell lysates)) EUB0000639a MAP3K11; assay type: subcellular; settings: lysate, at 5 µM
[6] = target: Sphingosine kinase 1 (Homo sapiens) (UniProt Q9NYA1); assay: Selectivity interaction (Kinase panel (Invitrogen)) EUB0000639a SPHK1; settings: at 200 nM
[7] = target: Macrophage colony-stimulating factor 1 receptor (Homo sapiens) (UniProt P07333); assay: Selectivity interaction (KinomeScan (DiscoverX)) EUB0000595a CSF1R; settings: at 10 µM
[8] = target: T1, Histone-lysine N-methyltransferase EHMT2 (Homo sapiens) (UniProt Q96KQ7); assay: Selectivity interaction (Methyltransferase screen (Scintillation proximity assays)) EUB0000255b EHMT2
T1 sequence (whole entry): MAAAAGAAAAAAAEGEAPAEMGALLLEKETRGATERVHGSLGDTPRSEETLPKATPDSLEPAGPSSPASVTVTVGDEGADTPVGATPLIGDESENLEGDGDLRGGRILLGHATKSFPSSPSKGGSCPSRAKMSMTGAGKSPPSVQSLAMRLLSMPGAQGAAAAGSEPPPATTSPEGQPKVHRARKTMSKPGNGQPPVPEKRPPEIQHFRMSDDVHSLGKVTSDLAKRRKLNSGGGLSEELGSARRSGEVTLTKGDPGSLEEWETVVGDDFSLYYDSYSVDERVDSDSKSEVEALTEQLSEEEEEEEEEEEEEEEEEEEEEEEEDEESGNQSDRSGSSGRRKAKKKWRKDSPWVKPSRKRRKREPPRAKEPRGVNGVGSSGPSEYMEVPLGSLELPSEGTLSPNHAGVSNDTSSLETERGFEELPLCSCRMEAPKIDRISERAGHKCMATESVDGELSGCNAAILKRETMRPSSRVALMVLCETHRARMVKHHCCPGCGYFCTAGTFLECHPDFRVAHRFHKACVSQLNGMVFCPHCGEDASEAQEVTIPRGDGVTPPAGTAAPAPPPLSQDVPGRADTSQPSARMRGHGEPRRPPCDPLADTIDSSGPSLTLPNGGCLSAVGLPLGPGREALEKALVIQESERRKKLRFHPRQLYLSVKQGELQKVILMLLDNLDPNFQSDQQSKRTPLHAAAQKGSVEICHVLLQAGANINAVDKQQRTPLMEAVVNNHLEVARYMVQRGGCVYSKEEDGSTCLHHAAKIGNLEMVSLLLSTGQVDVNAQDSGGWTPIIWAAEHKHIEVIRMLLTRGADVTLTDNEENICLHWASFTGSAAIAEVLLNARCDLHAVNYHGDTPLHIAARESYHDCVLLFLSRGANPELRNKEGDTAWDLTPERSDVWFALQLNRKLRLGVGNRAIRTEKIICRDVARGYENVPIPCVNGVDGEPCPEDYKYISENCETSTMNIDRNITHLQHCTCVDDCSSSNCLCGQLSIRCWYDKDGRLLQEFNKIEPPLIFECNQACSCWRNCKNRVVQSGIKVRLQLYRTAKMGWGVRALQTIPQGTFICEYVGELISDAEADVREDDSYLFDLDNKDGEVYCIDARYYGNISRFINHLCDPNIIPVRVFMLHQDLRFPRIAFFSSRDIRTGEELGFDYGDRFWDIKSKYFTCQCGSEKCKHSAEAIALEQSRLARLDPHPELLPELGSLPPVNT

[9] = target: Mitogen-activated protein kinase kinase kinase 11 (Homo sapiens) (UniProt Q16584); assay: Selectivity interaction (KinomeScan (DiscoverX)) EUB0000045b MAP3K11
[10] = target: Phosphorylase b kinase gamma catalytic chain, skeletal muscle/heart isoform (Homo sapiens) (UniProt Q16816); assay: Selectivity interaction (KinomeScan (DiscoverX)) EUB0000045b PHKG1
[11] = target: Serine/threonine-protein kinase tousled-like 2 (Homo sapiens) (UniProt Q86UE8); assay: Selectivity interaction (KinomeScan (DiscoverX)) EUB0000045b TLK2
[12] = target: Eukaryotic translation initiation factor 2-alpha kinase 3 (Homo sapiens, UniProt Q9NZJ5)
[13] = target: T2, Activin receptor type-1B (Homo sapiens) (UniProt P36896); assay: Selectivity interaction (Upstate Kinase Profiler service (Millipore)) EUB0000056c ACVR1B; settings: at 1 µM
T2 sequence (whole entry): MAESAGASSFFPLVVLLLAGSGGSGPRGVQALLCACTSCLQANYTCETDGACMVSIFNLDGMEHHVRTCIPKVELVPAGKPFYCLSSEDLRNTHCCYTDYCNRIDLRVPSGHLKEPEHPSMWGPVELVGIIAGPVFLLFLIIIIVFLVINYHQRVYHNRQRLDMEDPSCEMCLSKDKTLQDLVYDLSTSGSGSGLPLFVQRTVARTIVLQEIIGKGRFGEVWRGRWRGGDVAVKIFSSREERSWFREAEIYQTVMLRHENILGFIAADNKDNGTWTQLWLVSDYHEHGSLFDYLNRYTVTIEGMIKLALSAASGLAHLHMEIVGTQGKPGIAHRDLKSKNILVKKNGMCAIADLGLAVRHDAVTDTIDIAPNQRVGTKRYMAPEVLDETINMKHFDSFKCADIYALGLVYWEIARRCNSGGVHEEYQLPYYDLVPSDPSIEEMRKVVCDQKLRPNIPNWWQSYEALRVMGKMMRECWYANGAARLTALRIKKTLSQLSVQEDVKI

[14] = target: Mitogen-activated protein kinase 4 (Homo sapiens) (UniProt P31152); assay: Selectivity interaction (KinomeScan (DiscoverX)) EUB0000655a MAPK4; settings: at 10 µM
[15] = target: Calcium/calmodulin-dependent protein kinase type 1G (Homo sapiens) (UniProt Q96NX5); assay: Selectivity interaction (Kinase panel (Z-LYTE Assay)) EUB0001632a CAMK1G; settings: at 10 µM
Sequence of Calcium/calmodulin-dependent protein kinase type 1G (Homo sapiens) (Q96NX5 whole entry): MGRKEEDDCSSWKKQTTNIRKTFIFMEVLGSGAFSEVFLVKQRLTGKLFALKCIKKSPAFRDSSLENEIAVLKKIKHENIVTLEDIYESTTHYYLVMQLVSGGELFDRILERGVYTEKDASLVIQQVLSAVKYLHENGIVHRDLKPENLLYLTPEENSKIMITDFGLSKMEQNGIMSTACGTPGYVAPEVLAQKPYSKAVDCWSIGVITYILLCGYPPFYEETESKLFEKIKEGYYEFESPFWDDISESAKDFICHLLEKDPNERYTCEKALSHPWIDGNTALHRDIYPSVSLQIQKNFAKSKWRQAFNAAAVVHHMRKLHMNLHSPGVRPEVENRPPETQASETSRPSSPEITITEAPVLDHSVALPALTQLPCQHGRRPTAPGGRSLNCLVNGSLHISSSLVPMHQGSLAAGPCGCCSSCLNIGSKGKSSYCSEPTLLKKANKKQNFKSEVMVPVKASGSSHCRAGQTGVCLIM

Sequence of Dual specificity protein kinase CLK3 (P49761 whole entry, looked up): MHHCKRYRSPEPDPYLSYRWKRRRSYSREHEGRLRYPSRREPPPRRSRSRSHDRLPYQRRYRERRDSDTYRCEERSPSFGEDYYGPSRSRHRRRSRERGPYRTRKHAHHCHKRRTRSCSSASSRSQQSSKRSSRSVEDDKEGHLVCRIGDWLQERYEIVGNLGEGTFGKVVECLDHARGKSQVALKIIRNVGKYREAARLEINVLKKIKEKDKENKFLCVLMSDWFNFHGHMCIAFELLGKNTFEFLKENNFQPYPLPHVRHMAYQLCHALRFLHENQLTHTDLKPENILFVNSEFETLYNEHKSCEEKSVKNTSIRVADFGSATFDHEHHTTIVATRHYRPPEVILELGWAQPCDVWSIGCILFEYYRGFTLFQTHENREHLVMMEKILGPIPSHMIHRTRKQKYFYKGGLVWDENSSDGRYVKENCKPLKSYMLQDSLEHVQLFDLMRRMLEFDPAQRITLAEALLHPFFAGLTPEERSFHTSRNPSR
Sequence of Mitogen-activated protein kinase kinase kinase 11 (Homo sapiens) (Q16584 whole entry, looked up, canonical isoform): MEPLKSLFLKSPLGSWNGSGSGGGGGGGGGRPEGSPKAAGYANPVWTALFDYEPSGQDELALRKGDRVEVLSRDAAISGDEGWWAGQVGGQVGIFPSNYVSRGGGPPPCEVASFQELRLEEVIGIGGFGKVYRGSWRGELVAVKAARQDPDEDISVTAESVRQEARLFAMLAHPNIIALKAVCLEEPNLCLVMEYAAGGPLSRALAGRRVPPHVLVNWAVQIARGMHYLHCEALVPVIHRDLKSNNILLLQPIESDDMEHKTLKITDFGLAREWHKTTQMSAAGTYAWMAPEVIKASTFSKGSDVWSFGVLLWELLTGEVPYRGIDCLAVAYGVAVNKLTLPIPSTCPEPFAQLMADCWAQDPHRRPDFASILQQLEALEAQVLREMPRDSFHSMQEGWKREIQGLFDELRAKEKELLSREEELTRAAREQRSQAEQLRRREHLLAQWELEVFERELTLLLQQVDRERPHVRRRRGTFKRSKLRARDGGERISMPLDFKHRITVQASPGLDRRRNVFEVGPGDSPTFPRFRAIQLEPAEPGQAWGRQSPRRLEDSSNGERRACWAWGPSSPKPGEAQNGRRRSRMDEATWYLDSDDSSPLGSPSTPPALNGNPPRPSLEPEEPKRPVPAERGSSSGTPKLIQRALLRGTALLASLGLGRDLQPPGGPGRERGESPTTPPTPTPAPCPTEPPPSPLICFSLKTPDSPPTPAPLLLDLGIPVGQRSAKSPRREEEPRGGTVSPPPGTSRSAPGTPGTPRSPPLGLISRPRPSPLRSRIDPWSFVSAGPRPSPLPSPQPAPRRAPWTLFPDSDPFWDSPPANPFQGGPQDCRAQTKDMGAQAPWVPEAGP
Sequence of Phosphorylase b kinase gamma catalytic chain, skeletal muscle/heart isoform (Homo sapiens) (Q16816 whole entry, looked up, canonical isoform): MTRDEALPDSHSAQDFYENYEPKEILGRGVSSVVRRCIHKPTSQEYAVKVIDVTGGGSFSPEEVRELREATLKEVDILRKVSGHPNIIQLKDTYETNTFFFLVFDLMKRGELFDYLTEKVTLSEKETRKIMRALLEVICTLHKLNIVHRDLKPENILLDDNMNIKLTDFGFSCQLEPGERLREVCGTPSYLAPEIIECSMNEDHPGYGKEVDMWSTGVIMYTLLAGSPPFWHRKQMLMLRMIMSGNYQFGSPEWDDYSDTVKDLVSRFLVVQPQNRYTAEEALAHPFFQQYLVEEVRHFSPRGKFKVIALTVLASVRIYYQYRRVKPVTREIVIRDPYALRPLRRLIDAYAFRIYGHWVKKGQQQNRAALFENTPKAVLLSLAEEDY
Sequence of Serine/threonine-protein kinase tousled-like 2 (Homo sapiens) (Q86UE8 whole entry, looked up): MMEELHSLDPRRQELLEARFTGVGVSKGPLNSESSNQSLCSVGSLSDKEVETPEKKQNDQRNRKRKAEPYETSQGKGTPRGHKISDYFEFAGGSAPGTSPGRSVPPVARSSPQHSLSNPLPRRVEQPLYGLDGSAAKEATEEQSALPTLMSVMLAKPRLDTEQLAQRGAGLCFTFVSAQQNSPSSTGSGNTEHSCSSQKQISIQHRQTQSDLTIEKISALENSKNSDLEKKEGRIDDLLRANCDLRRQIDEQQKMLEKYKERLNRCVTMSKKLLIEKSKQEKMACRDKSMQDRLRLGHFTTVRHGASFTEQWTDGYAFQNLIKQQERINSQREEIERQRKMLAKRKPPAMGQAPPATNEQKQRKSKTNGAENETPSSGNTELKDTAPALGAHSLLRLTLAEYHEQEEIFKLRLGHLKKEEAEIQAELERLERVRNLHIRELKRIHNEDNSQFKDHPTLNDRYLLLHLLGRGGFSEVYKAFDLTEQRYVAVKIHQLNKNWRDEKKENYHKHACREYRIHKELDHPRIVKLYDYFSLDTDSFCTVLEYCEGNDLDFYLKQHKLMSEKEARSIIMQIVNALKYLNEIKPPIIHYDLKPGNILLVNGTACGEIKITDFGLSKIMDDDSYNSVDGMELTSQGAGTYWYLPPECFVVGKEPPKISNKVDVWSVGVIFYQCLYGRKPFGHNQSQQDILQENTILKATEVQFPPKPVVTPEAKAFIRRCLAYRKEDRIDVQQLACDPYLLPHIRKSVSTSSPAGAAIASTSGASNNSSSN
Sequence of Mitogen-activated protein kinase 4 (Homo sapiens) (P31152 whole entry): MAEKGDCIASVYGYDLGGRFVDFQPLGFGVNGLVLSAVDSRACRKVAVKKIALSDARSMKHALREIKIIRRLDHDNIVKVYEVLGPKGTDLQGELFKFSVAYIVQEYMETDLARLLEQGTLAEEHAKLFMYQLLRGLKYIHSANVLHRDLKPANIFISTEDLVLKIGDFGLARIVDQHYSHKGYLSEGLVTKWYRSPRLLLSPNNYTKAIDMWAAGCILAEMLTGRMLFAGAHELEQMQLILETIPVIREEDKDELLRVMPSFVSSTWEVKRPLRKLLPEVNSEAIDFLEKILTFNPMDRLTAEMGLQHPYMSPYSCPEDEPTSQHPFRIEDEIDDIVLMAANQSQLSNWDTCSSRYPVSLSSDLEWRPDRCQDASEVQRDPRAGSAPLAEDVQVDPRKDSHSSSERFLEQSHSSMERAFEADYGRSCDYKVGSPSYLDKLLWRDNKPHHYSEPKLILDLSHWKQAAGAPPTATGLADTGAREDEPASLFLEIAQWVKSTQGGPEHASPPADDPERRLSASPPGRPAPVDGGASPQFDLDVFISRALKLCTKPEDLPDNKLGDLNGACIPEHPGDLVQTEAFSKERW
Sequence of Eukaryotic translation initiation factor 2-alpha kinase 3 (Q9NZJ5 whole entry): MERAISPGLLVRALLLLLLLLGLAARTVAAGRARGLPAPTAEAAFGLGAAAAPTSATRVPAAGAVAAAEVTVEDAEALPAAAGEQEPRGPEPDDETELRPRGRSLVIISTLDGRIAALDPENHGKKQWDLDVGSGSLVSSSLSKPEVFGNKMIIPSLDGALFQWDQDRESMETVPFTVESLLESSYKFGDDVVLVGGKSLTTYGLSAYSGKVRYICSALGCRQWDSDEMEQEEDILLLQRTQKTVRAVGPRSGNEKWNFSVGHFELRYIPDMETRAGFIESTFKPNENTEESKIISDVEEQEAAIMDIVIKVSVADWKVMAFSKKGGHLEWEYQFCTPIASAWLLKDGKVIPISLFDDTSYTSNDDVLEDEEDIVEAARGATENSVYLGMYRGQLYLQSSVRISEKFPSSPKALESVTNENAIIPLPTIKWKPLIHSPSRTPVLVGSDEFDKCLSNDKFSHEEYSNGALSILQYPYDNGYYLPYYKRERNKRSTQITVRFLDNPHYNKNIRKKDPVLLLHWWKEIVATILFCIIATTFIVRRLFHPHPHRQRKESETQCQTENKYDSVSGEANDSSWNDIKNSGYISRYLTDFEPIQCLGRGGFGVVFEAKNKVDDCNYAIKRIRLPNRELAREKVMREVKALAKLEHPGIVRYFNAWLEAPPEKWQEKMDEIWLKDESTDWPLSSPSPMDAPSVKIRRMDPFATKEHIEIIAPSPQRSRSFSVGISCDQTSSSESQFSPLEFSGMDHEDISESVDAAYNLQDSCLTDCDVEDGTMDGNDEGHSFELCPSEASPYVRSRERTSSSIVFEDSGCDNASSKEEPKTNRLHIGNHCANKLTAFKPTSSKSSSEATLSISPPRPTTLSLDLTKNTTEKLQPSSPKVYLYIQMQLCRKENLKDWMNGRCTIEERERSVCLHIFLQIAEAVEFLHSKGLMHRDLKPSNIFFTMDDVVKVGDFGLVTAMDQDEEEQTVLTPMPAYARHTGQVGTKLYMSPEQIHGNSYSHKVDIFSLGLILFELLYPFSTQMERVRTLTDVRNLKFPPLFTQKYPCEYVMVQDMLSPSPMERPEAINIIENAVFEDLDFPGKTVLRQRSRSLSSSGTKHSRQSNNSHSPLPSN

## CN1Cc2nccc(-c3cn(C)nc3-c3ccc(F)cc3)c2C1=O
[1]
  % of inhibition: 8%

## COc1cc(N(C)c2ccnc3ccc(C(F)(F)F)cc23)cc(OC)c1OC
[2]
  % binding: 77%

## C=CC(=O)Nc1ccc(C(=O)Nc2[nH]nc3c2CN(C(=O)N[C@H](CN(C)C)c2ccccc2)C3(C)C)cc1
[3]
  % of engagement: -2.2%

## CC[C@@H]1[C@H](F)C(=O)N[C@@H]1COc1nccc2cc(C(N)=O)c(OC)cc12 [ZIMLOVISERTIB]
[4]; at 0.01 µM
  % of inhibition: 8.2%
[4]; at 0.04 µM
  % of inhibition: 15.5%
[4]; at 0.2 µM
  % of inhibition: 0.7%
[4]; at 1 µM
  % of inhibition: 5.8%
[4]; at 5 µM
  % of inhibition: 12.1%
[5]
  % of inhibition: -18.7%
[6]
  % of inhibition: 2.77%

## COCC(=O)NC/C=C/c1ccc2ncnc(Nc3ccc(Oc4ccc(C)nc4)c(C)c3)c2c1 [CP-724714]
[7]
  % of control: 100%

## COCCN1CCC(c2cc(CN(C)C(=O)c3cccc(Oc4ccccc4)c3)ccn2)CC1
[8]; at 1 µM
  % activity: > 95%
[8]; at 10 µM
  % activity: > 90%

## C=CC(=O)Nc1cc(-n2c(=O)ccc3cnc4ccc(-c5ccc(NS(C)(=O)=O)cc5)cc4c32)ccc1C
[9]; at 1 µM
  % of control: 91%
[9]; at 10 µM
  % of control: 87%
[10]; at 1 µM
  % of control: 86%
[10]; at 10 µM
  % of control: 97%
[11]; at 1 µM
  % of control: 100%
[11]; at 10 µM
  % of control: 100%

## CCc1cccc(CC)c1NC(=O)c1nn(C)c2c1CCc1cnc(Nc3ccc(C(=O)NC4CCN(C)CC4)cc3OC(F)(F)F)nc1-2
[12]
  pIC50: < 5.00

## Cc1ccc(-c2ccc3c(ccc4sc5c(c43)NC[C@@H](C)NC5=O)n2)cn1
[13]
  % of inhibition: 9%

## CN(C)CCOc1ccc(-c2nc(-c3ccncc3)c(-c3ccc4c(c3)CC/C4=N\O)[nH]2)cc1
[14]
  % of control: 100%

## Cn1cc(-n2cnc3c(NCc4nc5cc(Cl)c(Cl)cc5[nH]4)nc(N4CCOCC4)nc32)cn1
[15]
  % of control: -0.991%
